# Tests used:
# stem cells [1] = assay: Induction of differentiation of stem cells into chondrocytes (2D), Alcian blue staining; format: cell-based; details: 2D culture, induced to differentiate for 16 days
# Protocol: Stem cells (collected from tissue donated by a hospital for non-profit patient treatment) were cultured by attaching 80% or more of the stem cells to a Dulbecco's modified Eagle's medium (DMEM) or a-MEM containing 1 to 10% FBS. Thereafter, the cells were collected using Trypsin-EDTA, counted, seeded at 1×10^3 cells/well in a 96-well plate, and attached to the plate for 24 hours. […] Thereafter, the stem cells induced to differentiate for 16 days were washed with DPBS and fixed with 4% paraformaldehyde for 1 hour. The completely fixed cells were stained using an Alcian blue solution (Merck, B8438) for 1 hour to 1 day. Thereafter, the cells were washed once with 1 N HCl, and then further washed three times with sterile distilled water. Finally, the washed sample was observed under a microscope.
# stem cells [2] = assay: Induction of differentiation of stem cells into chondrocytes (3D), Alcian blue staining; format: cell-based; details: 3D culture, 0.1 to 6 μM ciprofloxacin, 16 days
# Protocol: Stem cells (collected from tissue donated by a hospital for non-profit patient treatment) were cultured by attaching 80% or more of the stem cells to a Dulbecco's modified Eagle's medium (DMEM) or a-MEM containing 1 to 10% FBS. Thereafter, the cells were collected and counted using Trypsin-EDTA, and 5×10^5 cells were inoculated into a 15 ml conical tube. A medium containing 0.1 to 6 μM ciprofloxacin was centrifuged to settle the cells at 150 g using a centrifuge (Hanil Science Co., Ltd., Combi415). The cells were cultured in a 5% CO2 incubator at 37° C. while exchanging the medium every 2 to 3 days. The stem cells induced to differentiate for 16 days were washed with DPBS and fixed with 4% paraformaldehyde for 1 hour. The completely fixed cells were stained using an Alcian blue solution (Merck, B8438) for 1 hour to 24 hours. Thereafter, the cells were washed once with 1 N HCl, and then further washed three times with sterile distilled water. Finally, the washed sample was observed.
# stem cells [3] = details: stem cells cultured in medium with ciprofloxacin
# Protocol: Stem cells (collected from tissue donated by a hospital for non-profit patient treatment) were cultured by attaching 80% or more of the stem cells to a Dulbecco's modified Eagle's medium (DMEM) or a-MEM containing 1 to 10% FBS.
# Thereafter, the cells were collected using Trypsin-EDTA, counted, seeded at 1×10^3 cells/well in a 96-well plate, and attached to the plate for 24 hours. Thereafter, ciprofloxacin (Samsung Pharmaceutical, ciprofloxacin injection) was administered according to the concentration, and then cytotoxicity was confirmed for a specific time (up to 166 hours). Next, each well was treated with Cell Counting Kit-8 (hereinafter referred to as CCK, DOJINDO, Cat. No. CK04-13) at 10 μl/well, and then cultured at 37° C. in a 5% CO2 incubator for 1 hour.
# The absorbance was measured using an absorbance meter (Bio-Tek, Epoch2) and quantitatively calculated.
smiles,measurement,setting,value
O=C(O)c1cn(C2CC2)c2cc(N3CCNCC3)c(F)cc2c1=O [ciprofloxacin],"differentiation into chondrocytes, Alcian blue staining (2D)",stem cells [1],"Alcian blue staining, which appears depending on SOX9, was present throughout the chondrocytes"
same,"differentiation into chondrocytes, Alcian blue staining (3D)",stem cells [2],"Alcian blue staining, which appears depending on SOX9, was present throughout the chondrocytes"
same,cell viability compared to a control (CONT),stem cells [3],a significant difference in cell viability was not exhibited

# — patent US20240376433A1, “STEM CELL INDUCTION INTO PRECHONDROCYTES AND DIFFERENTIATION INTO CHONDROCYTES BY CIPROFLOXACIN” (SMART CELL LAB CO., LTD., priority 2021, published 2024)
